Experimental data from PubChem BioAssay (NCI).
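How tested: cells in 96-well plates exposed to compound for 48 hours at five concentrations. TGI is the concentration that stops growth completely.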

What was measured:
Assay in all cases: inhibition of tumour cell growth, NCI panel, 48 h
786-0 renal = system: 786-0 renal
A498 renal = system: A498 renal
A549 NSCLC = system: A549 NSCLC
ACHN renal = system: ACHN renal
CAKI-1 renal = system: CAKI-1 renal
CCRF-CEM leukemia = system: CCRF-CEM leukemia
COLO 205 colon = system: COLO 205 colon
DU-145 prostate = system: DU-145 prostate
EKVX NSCLC = system: EKVX NSCLC
HCC-2998 colon = system: HCC-2998 colon
HCT-116 colon = system: HCT-116 colon
HCT-15 colon = system: HCT-15 colon
HL-60(TB) leukemia = system: HL-60(TB) leukemia
HOP-62 NSCLC = system: HOP-62 NSCLC
HOP-92 NSCLC = system: HOP-92 NSCLC
HS 578T breast = system: HS 578T breast
HT29 colon = system: HT29 colon
IGROV1 ovarian = system: IGROV1 ovarian
K-562 leukemia = system: K-562 leukemia
KM12 colon = system: KM12 colon
LOX IMVI melanoma = system: LOX IMVI melanoma
M14 melanoma = system: M14 melanoma
MALME-3M melanoma = system: MALME-3M melanoma
MCF7 breast = system: MCF7 breast
MDA-MB-231 breast = system: MDA-MB-231 breast
MDA-MB-435 = system: MDA-MB-435
MDA-N = system: MDA-N
MOLT-4 leukemia = system: MOLT-4 leukemia
NCI-H226 lung = system: NCI-H226 lung
NCI-H23 lung = system: NCI-H23 lung
NCI-H460 lung = system: NCI-H460 lung
NCI-H522 lung = system: NCI-H522 lung
NCI/ADR-RES ovarian = system: NCI/ADR-RES ovarian
OVCAR-3 ovarian = system: OVCAR-3 ovarian
OVCAR-4 ovarian = system: OVCAR-4 ovarian
OVCAR-5 ovarian = system: OVCAR-5 ovarian
OVCAR-8 ovarian = system: OVCAR-8 ovarian
PC-3 prostate = system: PC-3 prostate
RPMI-8226 leukemia = system: RPMI-8226 leukemia
RXF 393 renal = system: RXF 393 renal
SF-268 CNS = system: SF-268 CNS
SF-295 CNS = system: SF-295 CNS
SF-539 CNS = system: SF-539 CNS
SK-MEL-2 melanoma = system: SK-MEL-2 melanoma
SK-MEL-28 melanoma = system: SK-MEL-28 melanoma
SK-MEL-5 melanoma = system: SK-MEL-5 melanoma
SK-OV-3 ovarian = system: SK-OV-3 ovarian
SN12C renal = system: SN12C renal
SNB-19 CNS = system: SNB-19 CNS
SNB-75 CNS = system: SNB-75 CNS
SR leukemia = system: SR leukemia
SW-620 colon = system: SW-620 colon
T-47D breast = system: T-47D breast
TK-10 renal = system: TK-10 renal
U251 CNS = system: U251 CNS
UACC-257 melanoma = system: UACC-257 melanoma
UACC-62 melanoma = system: UACC-62 melanoma
UO-31 renal = system: UO-31 renal

## CN=CN(C)c1c2ccccc2nc2ccccc12
786-0 renal
  TGI: > 100 µM
A498 renal
  TGI: > 100 µM
A549 NSCLC
  TGI: > 100 µM
ACHN renal
  TGI: > 100 µM
CAKI-1 renal
  TGI: > 100 µM
CCRF-CEM leukemia
  TGI: > 100 µM
COLO 205 colon
  TGI: > 100 µM
DU-145 prostate
  TGI: > 100 µM
EKVX NSCLC
  TGI: > 100 µM
HCC-2998 colon
  TGI: > 100 µM
HCT-116 colon
  TGI: > 100 µM
HCT-15 colon
  TGI: > 100 µM
HL-60(TB) leukemia
  TGI: > 100 µM
HOP-62 NSCLC
  TGI: > 100 µM
HOP-92 NSCLC
  TGI: > 100 µM
HS 578T breast
  TGI: > 100 µM
HT29 colon
  TGI: > 100 µM
IGROV1 ovarian
  TGI: > 100 µM
K-562 leukemia
  TGI: > 100 µM
KM12 colon
  TGI: > 100 µM
LOX IMVI melanoma
  TGI: > 100 µM
M14 melanoma
  TGI: > 100 µM
MALME-3M melanoma
  TGI: > 100 µM
MCF7 breast
  TGI: > 100 µM
MDA-MB-231 breast
  TGI: > 100 µM
MDA-MB-435
  TGI: > 100 µM
MDA-N
  TGI: > 100 µM
MOLT-4 leukemia
  TGI: > 100 µM
NCI-H226 lung
  TGI: > 100 µM
NCI-H23 lung
  TGI: > 100 µM
NCI-H460 lung
  TGI: > 100 µM
NCI-H522 lung
  TGI: > 100 µM
NCI/ADR-RES ovarian
  TGI: > 100 µM
OVCAR-3 ovarian
  TGI: > 100 µM
OVCAR-4 ovarian
  TGI: > 100 µM
OVCAR-5 ovarian
  TGI: > 100 µM
OVCAR-8 ovarian
  TGI: > 100 µM
PC-3 prostate
  TGI: > 100 µM
RPMI-8226 leukemia
  TGI: > 100 µM
RXF 393 renal
  TGI: > 100 µM
SF-268 CNS
  TGI: > 100 µM
SF-295 CNS
  TGI: > 100 µM
SF-539 CNS
  TGI: > 100 µM
SK-MEL-2 melanoma
  TGI: > 100 µM
SK-MEL-28 melanoma
  TGI: > 100 µM
SK-MEL-5 melanoma
  TGI: > 100 µM
SK-OV-3 ovarian
  TGI: > 100 µM
SN12C renal
  TGI: > 100 µM
SNB-19 CNS
  TGI: > 100 µM
SNB-75 CNS
  TGI: > 100 µM
SR leukemia
  TGI: > 100 µM
SW-620 colon
  TGI: > 100 µM
T-47D breast
  TGI: > 100 µM
TK-10 renal
  TGI: > 100 µM
U251 CNS
  TGI: > 100 µM
UACC-257 melanoma
  TGI: > 100 µM
UACC-62 melanoma
  TGI: > 100 µM
UO-31 renal
  TGI: 28.1 µM

## CCN(CC)CCC1CCCCN1CC(=O)N1c2ccccc2NC(=O)c2ccccc21 (centres undefined)
786-0 renal
  TGI: > 100 µM
A498 renal
  TGI: > 100 µM
A549 NSCLC
  TGI: > 100 µM
ACHN renal
  TGI: > 100 µM
CAKI-1 renal
  TGI: > 100 µM
CCRF-CEM leukemia
  TGI: > 100 µM
COLO 205 colon
  TGI: > 100 µM
DU-145 prostate
  TGI: > 100 µM
EKVX NSCLC
  TGI: > 100 µM
HCC-2998 colon
  TGI: > 100 µM
HCT-116 colon
  TGI: > 100 µM
HCT-15 colon
  TGI: > 100 µM
HL-60(TB) leukemia
  TGI: > 100 µM
HOP-62 NSCLC
  TGI: > 100 µM
HOP-92 NSCLC
  TGI: > 100 µM
HS 578T breast
  TGI: > 100 µM
HT29 colon
  TGI: > 100 µM
IGROV1 ovarian
  TGI: > 100 µM
K-562 leukemia
  TGI: > 100 µM
KM12 colon
  TGI: > 100 µM
LOX IMVI melanoma
  TGI: > 100 µM
M14 melanoma
  TGI: > 100 µM
MALME-3M melanoma
  TGI: > 100 µM
MCF7 breast
  TGI: > 100 µM
MDA-MB-231 breast
  TGI: > 100 µM
MDA-MB-435
  TGI: > 100 µM
MDA-N
  TGI: > 100 µM
MOLT-4 leukemia
  TGI: > 100 µM
NCI-H226 lung
  TGI: > 100 µM
NCI-H23 lung
  TGI: > 100 µM
NCI-H460 lung
  TGI: > 100 µM
NCI-H522 lung
  TGI: > 100 µM
OVCAR-3 ovarian
  TGI: > 100 µM
OVCAR-4 ovarian
  TGI: > 100 µM
OVCAR-5 ovarian
  TGI: > 100 µM
OVCAR-8 ovarian
  TGI: > 100 µM
PC-3 prostate
  TGI: > 100 µM
RPMI-8226 leukemia
  TGI: > 100 µM
RXF 393 renal
  TGI: > 100 µM
SF-268 CNS
  TGI: > 100 µM
SF-295 CNS
  TGI: > 100 µM
SF-539 CNS
  TGI: > 100 µM
SK-MEL-2 melanoma
  TGI: > 100 µM
SK-MEL-28 melanoma
  TGI: > 100 µM
SK-MEL-5 melanoma
  TGI: > 100 µM
SK-OV-3 ovarian
  TGI: > 100 µM
SN12C renal
  TGI: > 100 µM
SNB-19 CNS
  TGI: > 100 µM
SNB-75 CNS
  TGI: 92.6 µM
SR leukemia
  TGI: > 100 µM
T-47D breast
  TGI: > 100 µM
TK-10 renal
  TGI: > 100 µM
U251 CNS
  TGI: > 100 µM
UACC-257 melanoma
  TGI: > 100 µM
UACC-62 melanoma
  TGI: > 100 µM
UO-31 renal
  TGI: > 100 µM
